Reference: patent publication US10562898B2, “Substituted benzenesulfonamides as inhibitors of alpha-4 beta-7 integrin activity” (EA PHARMA CO., LTD., priority 2016, dated 2020)
pIC50: −log10 of the molar value.

Target: T1, T cell α4β7 integrin (Homo sapiens, UniProt P13612+P26010)
T1 construct: Blood samples were obtained from healthy volunteers' blood donation; endogenous in cells; host or cells: CD4-positive T cells in whole blood of healthy human volunteers
T1 sequence (P13612 34-1032): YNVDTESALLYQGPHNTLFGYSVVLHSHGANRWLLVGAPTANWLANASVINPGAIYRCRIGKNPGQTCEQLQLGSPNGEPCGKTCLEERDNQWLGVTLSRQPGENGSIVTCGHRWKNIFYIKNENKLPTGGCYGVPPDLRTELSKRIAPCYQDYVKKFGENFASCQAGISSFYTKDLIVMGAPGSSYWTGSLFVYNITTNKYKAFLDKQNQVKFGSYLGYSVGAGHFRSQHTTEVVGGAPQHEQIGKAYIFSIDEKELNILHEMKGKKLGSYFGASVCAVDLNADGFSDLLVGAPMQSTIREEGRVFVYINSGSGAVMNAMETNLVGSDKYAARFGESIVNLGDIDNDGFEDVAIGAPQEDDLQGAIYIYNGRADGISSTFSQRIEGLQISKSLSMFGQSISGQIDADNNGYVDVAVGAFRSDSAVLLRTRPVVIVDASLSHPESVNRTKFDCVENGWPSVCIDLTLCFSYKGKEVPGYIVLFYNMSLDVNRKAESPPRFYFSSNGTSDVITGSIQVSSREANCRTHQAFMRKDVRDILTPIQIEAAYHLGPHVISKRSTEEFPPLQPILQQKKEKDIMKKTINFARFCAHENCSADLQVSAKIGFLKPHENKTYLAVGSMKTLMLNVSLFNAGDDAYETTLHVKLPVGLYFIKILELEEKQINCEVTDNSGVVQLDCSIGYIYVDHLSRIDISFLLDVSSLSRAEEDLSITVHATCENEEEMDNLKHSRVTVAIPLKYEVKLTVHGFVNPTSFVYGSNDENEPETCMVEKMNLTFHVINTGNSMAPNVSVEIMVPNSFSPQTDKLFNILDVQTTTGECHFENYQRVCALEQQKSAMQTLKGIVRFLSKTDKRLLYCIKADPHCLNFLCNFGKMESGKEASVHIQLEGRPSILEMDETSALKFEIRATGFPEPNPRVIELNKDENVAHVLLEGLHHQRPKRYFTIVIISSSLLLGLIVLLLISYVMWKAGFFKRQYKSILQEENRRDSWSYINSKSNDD
T1 sequence (P26010 20-798): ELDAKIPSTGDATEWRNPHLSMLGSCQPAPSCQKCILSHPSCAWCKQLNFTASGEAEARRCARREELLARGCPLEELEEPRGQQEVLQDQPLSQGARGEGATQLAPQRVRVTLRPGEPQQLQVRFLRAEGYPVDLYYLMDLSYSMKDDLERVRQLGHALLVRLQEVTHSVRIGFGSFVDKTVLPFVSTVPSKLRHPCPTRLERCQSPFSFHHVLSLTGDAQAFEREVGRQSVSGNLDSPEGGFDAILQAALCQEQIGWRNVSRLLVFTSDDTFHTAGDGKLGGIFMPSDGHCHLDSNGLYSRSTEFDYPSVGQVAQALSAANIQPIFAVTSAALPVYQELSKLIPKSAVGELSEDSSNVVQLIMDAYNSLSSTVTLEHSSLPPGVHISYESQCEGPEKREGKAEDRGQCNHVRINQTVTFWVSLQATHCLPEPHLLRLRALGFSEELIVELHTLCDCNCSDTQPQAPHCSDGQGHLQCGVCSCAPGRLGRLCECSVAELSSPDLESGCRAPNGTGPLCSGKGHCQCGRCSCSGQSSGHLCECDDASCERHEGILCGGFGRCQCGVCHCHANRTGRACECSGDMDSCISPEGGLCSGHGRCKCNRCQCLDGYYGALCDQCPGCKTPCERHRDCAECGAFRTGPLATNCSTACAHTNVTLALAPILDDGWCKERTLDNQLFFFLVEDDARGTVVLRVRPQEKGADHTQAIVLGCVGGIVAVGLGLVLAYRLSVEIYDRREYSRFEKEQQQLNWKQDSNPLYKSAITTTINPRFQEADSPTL
Assay: Human MAdCAM-1/α4β7 integrin binding inhibitory activity evaluation test in whole human blood
Format: cell-based
Settings: recombinant human MAdCAM-1/Fc, CD4 positive cells, flow cytometry
Procedure: Human MAdCAM-1/α4β7 Integrin Binding Inhibitory Activity Evaluation Test in Whole Human Blood
Each test substance was measured in terms of the inhibitory activity of binding of T cell α4β7 integrin and MAdCAM-1 in human whole blood. Blood samples were obtained from healthy volunteers' blood donation.
A 4 mM MnCl2 solution and each of dilutions of various test substances were added to human whole blood, followed by incubation for 10 minutes. Recombinant human MAdCAM-1/Fc (R&D Systems) at 10 μg/mL was added, and each test sample taken in a total amount of 50 μL was incubated for 30 minutes. Then, 950 μL of Lyse/Fix (BD Biosciences) was added to allow hemolysis and fixation to proceed at 37° C. for 10 minutes. After centrifugation for 5 minutes, the supernatant was removed and 600 μL of a RPMI-1640 medium supplemented with 10% inactivated fetal bovine serum (hereinafter referred to as the medium) was added, followed by centrifugation for 5 minutes, removal of the supernatant, and then washing. The test sample was washed again with the medium, and then 2.5 μg/mL Mouse Anti-MAdCAM-1 antibody (Invitrogen) was added, followed by incubation for 30 minutes or more. After the test sample was washed with the medium, 3.4 μg/mL Goat Anti-Mouse IgG H&L, FITC (Abcam) was added, followed by incubation for 30 minutes or more. After the test sample was washed with the medium, 0.15 μg/mL PE Rat Anti-Mouse CD4 (BD Pharmigen) was added, followed by incubation for 30 minutes or more. After the test sample was washed with the medium, a ratio of MAdCAM-1 positive cells to CD4 positive cells was measured by using flow cytometry.
From independent test results using different blood samples of two to three persons, a MAdCAM-1 binding inhibiting rate of each test substance at each of various concentrations was obtained under the setting in which, among wells containing no test substances, a well containing no ligand was scored at 100% inhibition and a well containing ligand was scored at 0% inhibition, and then a concentration IC50 which brought about 50% binding inhibition was calculated.

SMILES | pIC50
Cc1cc(=O)n(-c2ccc(C[C@H](NC(=O)c3cc(F)c(NS(=O)(=O)c4ccc(NC(=O)C(C)(C)C)cc4)cc3F)C(=O)O)cn2)c(=O)n1C [Compound A45] | 8.82
Cn1ccc(=O)n(-c2ccc(C[C@H](NC(=O)c3cc(F)c(NS(=O)(=O)c4ccc(NC(=O)C(C)(C)C)cc4)cc3F)C(=O)O)cn2)c1=O [Compound A53] | 8.54
Cc1cn(C)c(=O)n(-c2ccc(C[C@H](NC(=O)c3cc(F)c(NS(=O)(=O)c4ccc(NC(=O)C(C)(C)C)cc4)cc3F)C(=O)O)cn2)c1=O [Compound A54] | 8.70
Cc1cn(C)c(=O)n(-c2ccc(C[C@H](NC(=O)c3cc(F)c(NS(=O)(=O)c4ccc(NC(=O)C5(C(F)(F)F)CC5)cc4)cc3F)C(=O)O)cn2)c1=O [Compound A56] | 8.27
Cc1cn(C)c(=O)n(-c2ccc(C[C@H](NC(=O)c3cc(F)c(NS(=O)(=O)c4ccc(NC(=O)C(C)(C)C(F)(F)F)cc4)cc3F)C(=O)O)cn2)c1=O [Compound A58] | 8.29

The next lines start with the values.

pIC50 | SMILES
8.32 | Cc1cn(C)c(=O)n(-c2ccc(C[C@H](NC(=O)c3cc(F)c(NS(=O)(=O)c4ccc(NC(=O)C(C)(C)CO)cc4)cc3F)C(=O)O)cn2)c1=O [Compound A63]
8.24 | Cn1cc(C(F)(F)F)c(=O)n(-c2ccc(C[C@H](NC(=O)c3cc(F)c(NS(=O)(=O)c4ccc(NC(=O)C(C)(C)C)cc4)cc3F)C(=O)O)cn2)c1=O [Compound A67]
8.25 | CN1CCC(=O)N(c2ccc(C[C@H](NC(=O)c3cc(F)c(NS(=O)(=O)c4ccc(NC(=O)C(C)(C)C)cc4)cc3F)C(=O)O)cn2)C1=O [Compound A75, (2S)-2-[2,5-difluoro-4-[(4-pivalamidophenyl)sulfonamide]benzamido]-3-[6-(3-methyl-2,6-dioxotetrahydropyrimidin-1(2H)-yl)pyridin-3-yl]propanoic acid]
